According to PMC9207808 (ACS Chemical Biology, 2022):
Residues, ends and D or L forms follow the SMILES beside them.

Columns and labels:
[1] = tested on: S. Typhimurium (14028) Δphd-doc::Km strains coexpressing DocSTm; test: Growth rescue experiment in S. Typhimurium; format: cell-based; settings: coexpression of DocSTm (pBAD33, arabinose) and Phd construct (pCA24N, basal expression); OD600 over time, M9 minimal medium; average of three independent experiments
Description: The cotransformations above were also performed with an empty pBAD33 plasmid, as a control for the absence of DocSTm expression.
For the growth rescue experiment, overnight (1% tryptone, 0.5% yeast extract, 0.5% NaCl, 1% glucose, 100 μg/mL of carbenicillin, and 34 μg/mL of chloramphenicol) cultures of the generated S. Typhimurium strains were diluted to an OD600 of approximately 0.006 into fresh M9 minimal medium supplemented with 0.5% or 1% arabinose, 0.4% glycerol, 0.4% casamino acids, 100 μg/mL of carbenicillin, and 34 μg/mL of chloramphenicol. Cell growth at a given time was monitored at OD600 with a Genesys 140 Visible Spectrophotometer (Thermo Scientific).

[2] = tested on: DocSTm; test: Surface plasmon resonance binding to immobilised Doc; design: species or system S. Typhimurium
Description: Experiments were performed in a Biacore S200 (Cytiva) with a Series S sensor chip NTA (Cytiva). The data was analyzed using the Biacore Evaluation Software (Cytiva) and curves were plotted using GraphPad Prism 5 (GraphPad Software, U.S.A.). All experiments were performed at 22 °C with a running buffer containing 10 mM HEPES, 500 mM NaCl, 50 μM EDTA, and 0.005% (v/v) TWEEN 20 at pH 8.0. The surface was conditioned following the standard manufacturer’s guidelines and protein immobilization was performed with a 30–60 s pulse (flow rate of 5 μL/min) of Doc (150 nM) in running buffer. […] Surface regeneration was performed with a 1 min pulse of 0.5 M imidazole followed by a 1 min pulse of 0.35 M of EDTA at pH 8.0.
Binding to Doc was performed using a multicycle kinetics (MCK) setup for peptides 7, 10, and 14, while the remaining samples were tested using a single-cycle kinetics (SCK) setup. The surface was fully regenerated in between each analyte in both cases. In the MCK experiments, increasing concentrations of each analyte were injected with an 80 s pulse (30 μL/min) and dissociation times varied depending on the time required to fully dissociate the complex. The double-referenced sensorgrams (raw data subtracted from a blank injection and reference surface responses) were analyzed using a kinetic and/or a steady-state 1:1 binding model. In the SCK experiments, typically six concentrations of each analyte were sequentially injected with 80 s pulses (30 μL/min), and dissociation times varied depending on the time required to dissociate at least 5% of the complex. The double-referenced sensorgrams were fitted using a kinetic 1:1 binding model.
At least three independent replicates were measured for each analyte (ESI section 5). When a steady-state fit was applied, the reported Kd and its uncertainty correspond, respectively, to the average and standard deviations of the Kd obtained in each measurement. When a kinetic fit was applied, the reported rate constants (kon and koff) and their uncertainties correspond, respectively, to the average and standard deviations of the rate constants obtained in each measurement. In this case, reported Kd were calculated using the equation below, and the standard deviation of the rate constants was propagated. [drawing 1]

[3] = tested on: DocSTm; test: Differential scanning fluorimetry (thermal stabilisation of Doc); format: binding, S. Typhimurium; settings: for melting temperature shift ΔTm: DSF, DocSTm 5 μM, analyte 50 μM, Tm with analyte minus Tm of free DocSTm (42.9 ± 0.9 °C), SYPRO Orange, 20 mM K2HPO4, 50 mM (NH4)2SO4, pH 8.0, triplicate; for Average Tm / Tm: DocSTm 5 µM + 50 µM binder; for Average Tm: average of 3 replicates
Description: Experiments were performed in a Mx3005P qPCR System (Agilent) collecting fluorescence data with a temperature ramp of 25 to 95 °C. Samples were prepared in a buffer containing 20 mM K2HPO4 and 50 mM (NH4)2SO4 at pH 8.0. The SYPRO Orange dye (Sigma-Aldrich, 5000× stock in DMSO) was used to monitor protein denaturation and was diluted to a final concentration of 3×. For binding experiments, the final concentration of Doc was 5 μM. Each condition was performed in triplicate (ESI section 4) and the melting curves were plotted using GraphPad Prism 5 (GraphPad Software, U.S.A.). The melting temperatures were obtained by fitting the sigmoidal section of the curves to a Boltzmann sigmoid function.

[4] = tested on: DocSTm; test: Dot blot phosphorylation assay (EF-Tu phosphorylation by Doc); format: biochemical, S. Typhimurium; settings: α-pThr, DocSTm 1 μM, EF-TuSTm 3 μM, ATP 1 mM, inhibitor 10 μM to 5 nM (3-fold dilutions), 16 h at RT
Description: Samples were prepared to a final volume of 10 μL. […] Samples were incubated for 16 h at RT and subsequently spotted on a nitrocellulose membrane. Phosphorylated EF-Tu was detected by immunodecoration using a rabbit monoclonal antiphosphothreonine antibody (Abcam, ab218195) at 1:2000 dilution (1 h at 4 °C), followed by incubation with a goat antirabbit IgG (H+L) HRP conjugate antibody (Advansta) at 1:10 000 dilution (1 h at RT). Chemiluminescence was developed using the HRP Luminata kit (Merck, WBLUR0100) and captured by an ImageQuant LAS4000 Western blot imaging system (Cytiva).

Structure (SMILES) | rescue of Salmonella growth from DocSTm-induced growth inhibition (in words) [1] | fold decrease in affinity (given as decrease/loss in Kd) compared with peptide 1 ([2]; SPR Kd relative to wild-type peptide 1) [fold] | Kd ([2]; SPR multicycle, steady-state fit, replicate 1) [nM] | Kd ([2]; SPR multicycle, steady-state fit, replicate 2) [nM] | Kd ([2]; SPR multicycle, steady-state fit, replicate 3) [nM] | Kd ([2]; SPR, multicycle kinetics, steady-state 1:1 fit, mean ± SD of 3 replicates) [nM] | melting temperature shift ΔTm [3] [°C] | Average Tm [3] [°C] | Tm ([3]; replicate 1) [°C] | Tm ([3]; replicate 2) [°C] | Tm ([3]; replicate 3) [°C] | Kd ([2]; SPR kinetic fit, replicate 1) [nM] | Kd ([2]; SPR kinetic fit, replicate 2) [nM] | Kd ([2]; SPR kinetic fit, replicate 3) [nM] | koff × 10^-6 ([2]; SPR, 1:1 kinetic fit, 22 °C, pH 8.0, mean ± SD of at least 3 replicates) | kon × 10^6 ([2]; SPR, 1:1 kinetic fit, single-cycle kinetics (multicycle for PhdSTm1-73), 22 °C, pH 8.0, mean ± SD of at least 3 replicates) | Kd ([2]; SPR, kinetic fit, KD calculated from mean koff and kon, SD propagated, 22 °C, pH 8.0) [nM] | Half-life of the complex ([2]; t1/2 = ln2 / koff) [min] | inhibition of EF-TuSTm phosphorylation by DocSTm (in words) [4]
CC[C@H](C)[C@H](NC(=O)[C@H](C)NC(=O)[C@H](C)NC(=O)[C@H](Cc1ccccc1)NC(=O)[C@H](CCC(=O)O)NC(=O)[C@H](CC(=O)O)NC(=O)[C@H](CC(=O)O)NC(=O)[C@H](CCSC)NC(=O)[C@H](Cc1c[nH]c2ccccc12)NC(C)=O)C(=O)N[C@@H](CCSC)C(=O)N[C@@H](C)C(=O)N[C@H](C(=O)N[C@@H](Cc1c[nH]cn1)C(=O)NCC(=O)N[C@@H](CC(N)=O)C(=O)N[C@@H](CCC(=O)O)C(=O)N[C@@H](C)C(=O)N[C@@H](CCCNC(=N)N)C(=O)N[C@@H](CCC(=O)O)C(=O)N[C@@H](CC(C)C)C(=O)N[C@@H](C)C(=O)N[C@@H](CC(=O)O)C(=O)N[C@@H](CCCCN)C(=O)O)C(C)C [peptide 14] (Ac-WMDDEFAAIMAVHGNEARELADK-OH; C-terminus assumed) | unable to rescue growth | ~300 | 25 ± 0.5 | 23.9 ± 0.94 | 15.4 ± 2.13 | 21.4 ± 5.25 | 14.3 ± 0.9 | 57.2 ± 0.2 | 57.4 | 57.2 | 57.0 |  |  |  |  |  |  |  | 
CC[C@H](C)[C@H](NC(=O)[C@H](C)NC(=O)[C@H](C)NC(=O)[C@H](Cc1ccccc1)NC(=O)[C@H](CCC(=O)O)NC(=O)[C@H](CC(=O)O)NC(=O)[C@H](CC(=O)O)NC(=O)[C@H](CCSC)NC(=O)[C@H](Cc1c[nH]c2ccccc12)NC(C)=O)C(=O)N[C@@H](CCSC)C(=O)N[C@@H](C)C(=O)N[C@H](C(=O)N[C@@H](Cc1c[nH]cn1)C(=O)NCC(=O)N[C@@H](CC(N)=O)C(=O)N[C@@H](CCC(=O)O)C(=O)N[C@@H](CC(C)C)C(=O)N[C@@H](CCCNC(=N)N)C(=O)N[C@@H](CCC(=O)O)C(=O)N[C@@H](CC(C)C)C(=O)N[C@@H](C)C(=O)O)C(C)C [peptide 20] (Ac-WMDDEFAAIMAVHGNELRELA-OH; N-terminus and C-terminus assumed) |  |  |  |  |  |  | 25.6 ± 0.9 | 68.5 ± 0.1 | 68.5 | 68.4 | 68.5 | 0.447 | 0.414 | 0.424 | 393 ± 18 ×10^-6 s-1 | 0.917 ± 0.023 ×10^6 M-1 s-1 | 0.428 ± 0.023 | 29.4 ± 1.2 | inhibition of DocSTm comparable to 1
